Measured values taken from US6262119A, “Methods of treating immunopathologies using polyunsaturated fatty acids” (priority 1996, dated 2001).
Where two headings read alike, the source gives them in different places.

Assays:
[1] = tested on: TNFα; assay: PHA-induced TNFα production (ELISA of mononuclear cell supernatants); assay type: cell-based; conditions: Homo sapiens
Experimental: (§1) Fatty acid (66pmn) was then added in 50ul and pre-incubated with the cells for 30 min at 37° C. in 5% CO2. Mitogen (PHA, ConA, PWM, Staph. aureus) was then added in 100 μl and the cells incubated for 66 hours at 37° C. in 5% CO2 before the addition of tritiated thymidine (1 μCi/well). After a total of 72 h in culture the cells were harvested and proliferation (thymidine incorporation) and supernatant's assayed for the presence of cytokines.
(§2) Cytokine levels in culture supernatants were determined by specific ELISA using anti-cytokine antibodies. The following cytokine levels were determined TNFα, TNFβ, interferon-γ, IL-1β, IL-2.

[2] = tested on: peripheral blood mononuclear cell proliferation; assay: Mononuclear cell proliferation assay (thymidine incorporation); assay type: cell-based, human; conditions: for % INHIBITION OF INDUCED PROLIFERATION AT 20 μM PUFA: mitogen-induced PBMC proliferation, one experiment in duplicate, representative of 4; for inhibition at 20 µM: Homo sapiens, read-out: % INHIBITION OF PROLIFERATION
Experimental: Mononuclear Cell Proliferation Assays
Mononuclear cells were separated from peripheral blood of normal human donors as described by Ferrante and Thong (1980, J. Immunol. Methods 36:109)). The mononuclear cells were resuspended in RPMI-1640 containing 20% human AB serum and placed into 96 well microtrays (50 μl per well, cell density 4×10^6 cells/ml). Fatty acid ([…]) was then added in 50ul and pre-incubated with the cells for 30 min at 37° C. in 5% CO2. Mitogen (PHA, ConA, PWM, Staph. aureus) was then added in 100 μl and the cells incubated for 66 hours at 37° C. in 5% CO2 before the addition of tritiated thymidine (1 μCi/well). After a total of 72 h in culture the cells were harvested and proliferation (thymidine incorporation) and supernatant's assayed for the presence of cytokines.

[3] = tested on: interferon γ; assay: PHA-stimulated interferon γ production (ELISA of mononuclear cell supernatants); assay type: cell-based; conditions: Homo sapiens, amino acid conjugated PUFA at 20 μM (Table 6), read-out: % inhibition of IFNγ production
Experimental: as §1, §2

[4] = tested on: DTH induced by SRBC; assay: Delayed type hypersensitivity against sheep red blood cells; assay type: in vivo, Female balb/c mice
Experimental: Delayed Type Hypersensitivity Against Sheep Red Blood Cells. Female balb/c mice were administered a priming dose of 100 μl of a 10% haematocrit of sheep red blood cells (SRBC) subcutaneously. Six days later mice were administered 25 μl of a 10% haematocrit of SRBC intradermally into the right hind footpad at time T-0 hrs. The subsequent anti-inflammatory response was evaluated by measuring the thickness of both hind footpads. Standard anti-inflammatory compounds, vehicle and test substances were administered intraperitonieally one hour prior to the SRBC challenge. PUFA compounds were administered in peanut oil.

[5] = tested on: psoriasis; conditions: drugs which block the cyclo-oxygenase pathway; cited from earlier work
[6] = PHA-induced TNFα, PUFA at 20 μM (Table 4), read-out: % INHIBITION OF CYTOKINE PRODUCTION (TNFα)
[7] = PHA-stimulated, amino acid conjugated PUFA at 20 μM (Table 6), read-out: % inhibition of TNFα production

Structure (SMILES) | inhibition at 20 µM [1, 6] | inhibition at 20 µM [1, 7] | inhibition at 20 µM [3] | other results
CCCCC/C=C\C/C=C\C/C=C\CCCCCSCCC(=O)O [γ-thia 22:3 (n-6), Z,Z,Z,Z-(6,9,12-Octadecatrienylthio)propionic acid] | 41% | – | – | –
CC/C=C\C/C=C\C/C=C\CCCCCCCCSCC(=O)O [β-thia 21:3 (n-3), Z,Z,Z,Z-(9,12,15-Octadecatrienylthio)acetic acid] | 17% | – | – | % INHIBITION OF INDUCED PROLIFERATION AT 20 μM PUFA [2]: 28%
CC/C=C\C/C=C\C/C=C\CCCCCCCCOCC(=O)O [β-oxa 21:3 (n-3), Z, Z, Z (9, 12, 15-Octadecatrienyloxy) acetic acid] | 39% | – | – | –
CC/C=C\C/C=C\C/C=C\C/C=C\C/C=C\C/C=C\CCC(=O)N[C@@H](CC(=O)O)C(=O)O [docosahexanoic acid-aspartic acid] | – | 17.4% | 8.3% | –
C[C@]12C=CC(=O)C=C1CC[C@@H]1[C@@H]2[C@@H](O)C[C@@]2(C)[C@H]1CC[C@]2(O)C(=O)CO [Prednisolone, reference compound] | – | – | – | % paw volume relative to control ([4]; 20 mg/kg, 3 hours post challenge): 58.35%; % paw volume relative to control ([4]; 20 mg/kg, 6 hours post challenge): 60.12%; % paw volume relative to control ([4]; 20 mg/kg, 24 hours post challenge): 100%
CC/C=C\C/C=C\C/C=C\C/C=C\C/C=C\C/C=C\CCCSCC(=O)O [β-thia 25:6 (n-3)] | 90% | – | – | % INHIBITION OF INDUCED PROLIFERATION AT 20 μM PUFA [2]: 97%
CC/C=C\C/C=C\C/C=C\C/C=C\C/C=C\CCCC(=O)NCC(=O)O [eicosapentanoic acid-glycine] | – | 11% | 68.2% | –
CCCCC/C=C\C/C=C\C/C=C\CCCCCOCC(=O)O [β-oxa 21:3 (n-6), Z, Z, Z (6,9, 12-Octadecatrienyloxy) acetic acid] | 38% | – | – | % INHIBITION OF INDUCED PROLIFERATION AT 20 μM PUFA [2]: 17%
CC/C=C\C/C=C\C/C=C\C/C=C\C/C=C\CCCC(=O)N[C@@H](CC(=O)O)C(=O)O [eicosapentanoic acid-aspartic acid] | – | 17.1% | 66.1% | –
CCCCC/C=C\C/C=C\C/C=C\CCCCC(=O)N[C@@H](CC(=O)O)C(=O)O [γ-linolenic acid-aspartic acid] | – | 4.7% | 0% | inhibition at 20 µM ([2]; induced by PHA, PUFA at 20 μM): 15.4%
CCCCCC(O)/C=C/C=C\C/C=C\CCCCCOCC(=O)O (stereo not drawn) [16-OH-β-oxa 21:3 (n-6), Z, Z, E-(13-Hydroxy-6,9,1-octadecatienyloxy) acetic acid] | 71% | – | – | % INHIBITION OF INDUCED PROLIFERATION AT 20 μM PUFA [2]: 50%; % paw volume relative to control ([4]; 10 mg/kg, 3 hours post challenge): 95.03%; % paw volume relative to control ([4]; 10 mg/kg, 6 hours post challenge): 81.63%; % paw volume relative to control ([4]; 10 mg/kg, 24 hours post challenge): 86.91%; % paw volume relative to control ([4]; 50 mg/kg, 3 hours post challenge): 65.01%; % paw volume relative to control ([4]; 50 mg/kg, 6 hours post challenge): 48.95%; % paw volume relative to control ([4]; 50 mg/kg, 24 hours post challenge): 51.02%; % paw volume relative to control ([4]; 100 mg/kg, 3 hours post challenge): 55.86%; % paw volume relative to control ([4]; 100 mg/kg, 6 hours post challenge): 40.94%; % paw volume relative to control ([4]; 100 mg/kg, 24 hours post challenge): 31.97%
COc1ccc2c(c1)c(CC(=O)O)c(C)n2C(=O)c1ccc(Cl)cc1 [Indomethacin, reference compound] | – | – | – | exacerbations of psoriasis [5]: induce exacerbations of psoriasis; % paw volume relative to control ([4]; 30 mg/kg, 3 hours post challenge): 89.59%; % paw volume relative to control ([4]; 30 mg/kg, 6 hours post challenge): 81.40%; % paw volume relative to control ([4]; 30 mg/kg, 24 hours post challenge): 49.57%
CCCCC/C=C\C/C=C\C/C=C\CCCCCSCC(=O)O [β-thia 21:3 (n-6), Z,Z,Z,Z-(6,9, 12-Octadecatrienythio)acetica acid] | 17% | – | – | –
CCCCC/C=C\C/C=C\C/C=C\C/C=C\CCCCSCCC(=O)O [γ-thia 24:4 (n-6), Z,Z,Z,Z-(5,8,11,14-Eicosatetraenylthio) propionic acid] | 34% | – | – | –
CCCCC/C=C\C/C=C\C/C=C\C/C=C\CCCCOCC(=O)O [β-oxa 23:4 (n-6), Z, Z, Z, Z (5,8, 11, 14-Eicosatetraenyloxy) acetic acid] | 25% | – | – | –
CCCCC/C=C\C/C=C\C/C=C\CCCCC(=O)NCC(=O)O [γ-linolenic acid-glycine] | – | 21.5% | 0% | inhibition at 20 µM ([2]; induced by PHA, PUFA at 20 μM): 29%
Cc1ccc(Cl)c(Nc2ccccc2C(=O)O)c1Cl [meclotenamate] | – | – | – | exacerbations of psoriasis [5]: induce exacerbations of psoriasis
CC/C=C\C/C=C\C/C=C\C/C=C\C/C=C\C/C=C\CCC(=O)NCC(=O)O [docosahexanoic acid-glycine] | – | 16.2% | 44% | –
CCCCC/C=C\C/C=C\C/C=C\C/C=C\CCCC(=O)N[C@@H](CC(=O)O)C(=O)O [arachidonic acid-aspartic acid] | – | 38.3% | 68.4% | –
CC/C=C\C/C=C\C/C=C\CCCCCCCCSCCC(=O)O [γ-thia 22:3 (n-3), Z,Z,Z,Z-(9,12,15-Octadecatrienylthio)proponionic acid] | 25% | – | – | –
CC/C=C\C/C=C\C/C=C\CCCCCCCC(=O)NCC(=O)O [α-linolenic acid-glycine] | – | 29.3% | 14.5% | inhibition at 20 µM ([2]; induced by PHA, PUFA at 20 μM): 15.6%
CCCCC/C=C\C/C=C\C/C=C\C/C=C\CCCCSCC(=O)O [β-thia 23:4 (n-6), Z,Z,Z,Z-(5,8,11,14-Eicosatetraenylthio) acetic acid] | 35% | – | – | –
CC/C=C\C/C=C\C/C=C\CCCCCCCC(=O)N[C@@H](CC(=O)O)C(=O)O [α-linolenic acid-aspartic acid] | – | 0% | 0% | inhibition at 20 µM ([2]; induced by PHA, PUFA at 20 μM): 7.3%
CCCCC/C=C\C/C=C\C/C=C\C/C=C\CCCC(=O)NCC(=O)O [arachidonic acid-glycine] | – | 26.6% | 35.9% | inhibition at 20 µM [2]: 8%
CCCCC1C(=O)N(c2ccccc2)N(c2ccccc2)C1=O [phenylbutazone] | – | – | – | exacerbations of psoriasis [5]: induce exacerbations of psoriasis
